According to US20230250066A1, “HERBICIDAL CINNOLINE DERIVATIVES” (SYNGENTA CROP PROTECTION AG, priority 2020, published 2023):

Legend:
Type in all cases: in vivo
[1] = test system: Setaria faberi (SETFA); assay: Pre-emergence herbicidal test; conditions: 1000 g/ha, evaluated after 13 days
[2] = test system: Echinochloa crus-galli (ECHCG); assay: Pre-emergence herbicidal test; conditions: 1000 g/ha, evaluated after 13 days
[3] = test system: Amaranthus retoflexus (AMARE); assay: Pre-emergence herbicidal test; conditions: 1000 g/ha, evaluated after 13 days
[4] = test system: Zea mays (ZEAMX); assay: Pre-emergence herbicidal test; conditions: 1000 g/ha, evaluated after 13 days
[5] = test system: Ipomoea hederacea (IPOHE); assay: Pre-emergence herbicidal test; conditions: 1000 g/ha, evaluated after 13 days
[6] = test system: Ipomoea hederacea (IPOHE); assay: Post-emergence herbicidal test; conditions: 1000 g/ha unless otherwise stated, evaluated after 13 days
Procedure, shortened: (§1)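 Spray treatment, 1000 g/ha unless noted; vehicle acetone/water (50:50), 0.5% Tween 20. Glasshouse 24/16° C., 14 h light, 65% humidity. Percent injury rated at 13 d, banded 0–5.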

[7] = test system: Abutilon theophrasti (ABUTH); assay: Post-emergence herbicidal test; conditions: 1000 g/ha unless otherwise stated, evaluated after 13 days
Procedure, shortened: as §1

[8] = test system: Setaria faberi (SETFA); assay: Post-emergence herbicidal test; conditions: 1000 g/ha unless otherwise stated, evaluated after 13 days
Procedure, shortened: as §1

[9] = test system: Zea mays (ZEAMX); assay: Post-emergence herbicidal test; conditions: 1000 g/ha unless otherwise stated, evaluated after 13 days
Procedure, shortened: as §1

[10] = test system: Amaranthus retoflexus (AMARE); assay: Post-emergence herbicidal test; conditions: 1000 g/ha unless otherwise stated, evaluated after 13 days
Procedure, shortened: as §1

[11] = test system: Echinochloa crus-galli (ECHCG); assay: Post-emergence herbicidal test; conditions: 1000 g/ha unless otherwise stated, evaluated after 13 days
Procedure, shortened: as §1

[12] = test system: Abutilon theophrasti (ABUTH); assay: Pre-emergence herbicidal test; conditions: 1000 g/ha, evaluated after 13 days

SMILES | percentage damage caused to the plant, five-point scale, SETFA [1] | percentage damage caused to the plant, five-point scale, ECHCG [2] | percentage damage caused to the plant, five-point scale, AMARE [3] | percentage damage caused to the plant, five-point scale, ZEAMX [4] | percentage damage caused to the plant, five-point scale, IPOHE [5] | percentage damage caused to the plant, IPOHE (five-point scale) [6] | percentage damage caused to the plant, ABUTH (five-point scale) [7] | percentage damage caused to the plant, SETFA (five-point scale) [8] | percentage damage caused to the plant, ZEAMX (five-point scale) [9] | percentage damage caused to the plant, AMARE (five-point scale) [10] | percentage damage caused to the plant, ECHCG (five-point scale) [11] | percentage damage caused to the plant, five-point scale, ABUTH [12]
CCCCCCCOC(=O)c1nn(-c2ccc(OC(F)(F)F)cc2)c2cccc(S(C)(=O)=O)c2c1=O [Compound P77, heptyl 5-methylsulfonyl-4-oxo-1-[4-(trifluoromethoxy)phenyl]cinnoline-3-carboxylate] | 5 (5=81-100%) | 3 (3=41-60%) | 0 (0=0%) | 0 (0=0%) | 0 (0=0%) | 0 (0=0%) | 1 (1=10-20%) | 4 (4=61-80%) | 0 (0=0%) | 0 (0=0%) | 3 (3=41-60%) | 0 (0=0%)
CCOC(=O)c1nn(-c2ccc(OC(F)(F)F)cc2)c2cccc(SCC(F)(F)F)c2c1=O [Compound P39, ethyl 4-oxo-5-(2,2,2-trifluoroethylsulfanyl)-1-[4-(trifluoromethoxy)phenyl]cinnoline-3-carboxylate] | 0 (0=0%) | 0 (0=0%) | 1 (1=10-20%) | 0 (0=0%) | 0 (0=0%) | 1 (1=10-20%) | 1 (1=10-20%) | 0 (0=0%) | 1 (1=10-20%) | 0 (0=0%) | 0 (0=0%) | 0 (0=0%)
O=C(O)c1nn(-c2ccc(OC(F)(F)F)cc2)c2cccc([S+]([O-])C3CC3)c2c1=O (stereo not drawn) [Compound P31, 5-cyclopropylsulfinyl-4-oxo-1-[4-(trifluoromethoxy)phenyl]cinnoline-3-carboxylic acid] | 0 (0=0%) | 0 (0=0%) | 0 (0=0%) | 0 (0=0%) | 0 (0=0%) | 0 (0=0%) | 0 (0=0%) | 0 (0=0%) | 0 (0=0%) | 0 (0=0%) | 0 (0=0%) | 0 (0=0%)
CS(=O)(=O)c1cccc2c1c(=O)c(C(=O)OCCCCCCCCCc1ccccc1)nn2-c1ccc(OC(F)(F)F)cc1 [Compound P83, 9-phenylnonyl 5-methylsulfonyl-4-oxo-1-[4-(trifluoromethoxy)phenyl]cinnoline-3-carboxylate] | 0 (0=0%) | 0 (0=0%) | 0 (0=0%) | 0 (0=0%) | 0 (0=0%) | 0 (0=0%) | 0 (0=0%) | 0 (0=0%) | 0 (0=0%) | 0 (0=0%) | 0 (0=0%) | 0 (0=0%)
CCCCCCCCCOC(=O)c1nn(-c2ccc(OC(F)(F)F)cc2)c2cccc(S(C)(=O)=O)c2c1=O [Compound P82, nonyl 5-methylsulfonyl-4-oxo-1-[4-(trifluoromethoxy)phenyl]cinnoline-3-carboxylate] | 3 (3=41-60%) | 1 (1=10-20%) | 0 (0=0%) | 0 (0=0%) | 0 (0=0%) | 1 (1=10-20%) | 1 (1=10-20%) | 0 (0=0%) | 1 (1=10-20%) | 0 (0=0%) | 1 (1=10-20%) | 0 (0=0%)
CS(=O)(=O)c1cccc2c1c(=O)c(C(=O)OC1CCOC1)nn2-c1ccc(OC(F)(F)F)cc1 (stereo not drawn) [Compound P70, tetrahydrofuran-3-yl 5-methylsulfonyl-4-oxo-1-[4-(trifluoromethoxy)phenyl]cinnoline-3-carboxylate] | 4 (4=61-80%) | 3 (3=41-60%) | 0 (0=0%) | 1 (1=10-20%) | 0 (0=0%) | 0 (0=0%) | 1 (1=10-20%) | 4 (4=61-80%) | 0 (0=0%) | 0 (0=0%) | 3 (3=41-60%) | 0 (0=0%)
CCCCCCCCSC(=O)c1nn(-c2ccc(OC(F)(F)F)cc2)c2cccc(S(C)(=O)=O)c2c1=O [Compound P90, S-octyl 5-methylsulfonyl-4-oxo-1-[4-(trifluoromethoxy)phenyl]cinnoline-3-carbothioate] | 4 (4=61-80%) | 3 (3=41-60%) | 0 (0=0%) | 0 (0=0%) | 0 (0=0%) | 1 (1=10-20%) | 0 (0=0%) | 4 (4=61-80%) | 1 (1=10-20%) | 0 (0=0%) | 3 (3=41-60%) | 0 (0=0%)
CC(C)OC(=O)c1nn(-c2ccc(OC(F)(F)F)cc2)c2cccc(S(C)(=O)=O)c2c1=O [Compound P65, isopropyl 5-methylsulfonyl-4-oxo-1-[4-(trifluoromethoxy)phenyl]cinnoline-3-carboxylate] | 4 (4=61-80%) | 4 (4=61-80%) | 1 (1=10-20%) | 0 (0=0%) | 0 (0=0%) | 0 (0=0%) | 1 (1=10-20%) | 4 (4=61-80%) | 0 (0=0%) | 1 (1=10-20%) | 3 (3=41-60%) | 1 (1=10-20%)
CCOC(=O)c1nn(-c2ccc(OC(F)(F)F)cc2)c2cccc(S(=O)(=O)CC(F)(F)F)c2c1=O [Compound P40, ethyl 4-oxo-5-(2,2,2-trifluoroethylsulfonyl)-1-[4-(trifluoromethoxy)phenyl]cinnoline-3-carboxylate] | 1 (1=10-20%) | 0 (0=0%) | 0 (0=0%) | 1 (1=10-20%) | 0 (0=0%) | 0 (0=0%) | 1 (1=10-20%) | 1 (1=10-20%) | 1 (1=10-20%) | 1 (1=10-20%) | 1 (1=10-20%) | 1 (1=10-20%)
